These results are taken from ChEMBL document CHEMBL1131422, “N-(2-Benzoylphenyl)-L-tyrosine PPARgamma agonists. 1. Discovery of a novel series of potent antihyperglycemic and antihyperlipidemic agents” (J Med Chem, 1998).

Activity calls are given as the source filed them. The rule behind the calls is not given here.

As a reminder, the EC50 is the midpoint of the concentration-response curve. Lower therefore signals a more potent agent. The Ki is a measure of affinity in units of concentration, obtained from inhibition or displacement. A word on the pKi: it is the Ki on a negative log10 scale, so that one unit is a factor of ten.

The species entered for test [1] is Rattus norvegicus. Kind of test: The compound was tested for Antihyperlipidemic activity in Zucker Diabetic fatty rats, activity is expressed as percent reduction of NEFAs. The class given is functional.
The species entered for test [2] is Rattus norvegicus. The experiment in a line: The compound was tested for Antihyperlipidemic activity in Zucker Diabetic fatty rats, activity is expressed as percent reduction of Triglycerides. Format: functional.
Test [3] deals with Rattus norvegicus. The experiment in a line: The compound was tested in vivo for Antihyperglycemic activity in Zucker Diabetic fatty rats, activity is expressed as percent reduction of HbA1C. Format: functional.
Test [4] deals with Rattus norvegicus. The experiment in a line: The compound was tested in vivo for Antihyperglycemic activity in Zucker Diabetic fatty rats, activity is expressed as percent reduction of plasma glucose. Format: functional.
The species entered for test [5] is Mus musculus. Kind of test: Compound was tested for Antihyperlipidemic activity, activity is expressed as percent reduction of NEFAs. The class given is functional.
The species entered for test [6] is Mus musculus. Kind of test: Compound was tested for Antihyperlipidemic activity, activity is expressed as percent reduction of Triglycerides. The class given is functional.
In test [7] the test system is Mus musculus. The experiment in a line: Compound was tested in vivo for Antihyperglycemic activity in mice, activity is expressed as percent reduction of plasma glucose. The class given is functional.
The target of test [8] is T1, Peroxisome proliferator-activated receptor delta (Mus musculus) (UniProt P35396).
T1 sequence (whole entry): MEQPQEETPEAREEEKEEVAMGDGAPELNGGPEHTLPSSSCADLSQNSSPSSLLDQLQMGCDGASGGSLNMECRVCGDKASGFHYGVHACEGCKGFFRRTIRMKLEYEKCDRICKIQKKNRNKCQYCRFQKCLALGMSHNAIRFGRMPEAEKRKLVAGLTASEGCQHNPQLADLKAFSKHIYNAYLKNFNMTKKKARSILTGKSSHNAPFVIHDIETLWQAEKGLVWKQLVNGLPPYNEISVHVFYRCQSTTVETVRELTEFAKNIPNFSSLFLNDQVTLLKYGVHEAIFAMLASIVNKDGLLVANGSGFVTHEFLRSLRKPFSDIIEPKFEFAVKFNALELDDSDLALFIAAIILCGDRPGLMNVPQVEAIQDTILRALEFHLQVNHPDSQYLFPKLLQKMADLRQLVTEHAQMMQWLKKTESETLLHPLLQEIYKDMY
The experiment in a line: Compound was tested functionally in vitro for inducing 50% of the maximum alkaline phosphatase activity (Transactivation) against murine Peroxisome proliferator activated receptor delta using transfection assay in CV-1 cells; IA = Inactive at 10e-4 M. Format: functional, cell-based.

In test [9] the target is T2, Peroxisome proliferator-activated receptor alpha (Mus musculus) (UniProt P23204).
T2 sequence (whole entry): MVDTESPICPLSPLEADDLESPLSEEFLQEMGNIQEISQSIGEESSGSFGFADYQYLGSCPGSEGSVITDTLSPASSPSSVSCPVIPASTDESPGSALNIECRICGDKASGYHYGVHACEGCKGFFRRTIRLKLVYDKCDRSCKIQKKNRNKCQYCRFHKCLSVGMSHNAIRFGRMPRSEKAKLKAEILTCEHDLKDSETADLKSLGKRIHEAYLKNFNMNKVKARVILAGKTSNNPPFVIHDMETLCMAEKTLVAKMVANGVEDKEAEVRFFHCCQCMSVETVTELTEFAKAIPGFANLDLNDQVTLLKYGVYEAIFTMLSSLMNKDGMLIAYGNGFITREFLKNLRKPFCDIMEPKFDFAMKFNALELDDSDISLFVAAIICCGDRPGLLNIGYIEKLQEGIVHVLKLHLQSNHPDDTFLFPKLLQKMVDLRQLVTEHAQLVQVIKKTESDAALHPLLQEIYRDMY
Kind of test: Compound was tested functionally in vitro for inducing 50% of the maximum alkaline phosphatase activity (Transactivation) against murine Peroxisome proliferator activated receptor alpha using transfection assay in CV-1 cells; IA = Inactive at 10e-4 M. Format: functional, cell-based.

The test system of test [10] is Rattus norvegicus. Kind of test: Compound was tested in vivo for Antihyperglycemic activity in Zucker Diabetic fatty rats, activity is expressed as percent reduction of plasma glucose. The class given is functional.
Test [11] is filed under the species Rattus norvegicus. Kind of test: Compound was tested for Antihyperlipidemic activity in Zucker Diabetic fatty rats, activity is expressed as percent reduction of NEFAs. Format: functional.
For test [12], the species on record is Rattus norvegicus. Kind of test: Compound was tested for Antihyperlipidemic activity in Zucker Diabetic fatty rats, activity is expressed as percent reduction of Triglycerides. Format: functional.
The subject of test [13] is Rattus norvegicus. Kind of test: Compound was tested in vivo for Antihyperglycemic activity in Zucker Diabetic fatty rats, activity is expressed as percent reduction of HbA1C. The class given is functional.
The target of test [14] is T3, Peroxisome proliferator-activated receptor delta (Homo sapiens) (UniProt Q03181).
T3 sequence (whole entry): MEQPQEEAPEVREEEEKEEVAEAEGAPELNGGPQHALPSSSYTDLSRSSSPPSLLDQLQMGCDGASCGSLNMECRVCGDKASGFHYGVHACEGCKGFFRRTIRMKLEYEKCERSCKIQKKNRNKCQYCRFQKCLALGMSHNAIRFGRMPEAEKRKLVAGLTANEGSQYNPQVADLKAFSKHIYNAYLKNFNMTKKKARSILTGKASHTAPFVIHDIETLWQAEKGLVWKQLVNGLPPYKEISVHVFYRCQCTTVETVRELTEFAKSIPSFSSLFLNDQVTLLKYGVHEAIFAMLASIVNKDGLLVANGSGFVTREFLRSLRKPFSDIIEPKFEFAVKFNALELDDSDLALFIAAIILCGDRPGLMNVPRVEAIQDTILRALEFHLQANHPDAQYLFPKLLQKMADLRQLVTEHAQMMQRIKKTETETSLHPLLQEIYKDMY
The following applies: CV-1; 10e-4 M.
Description: Compound was tested functionally in vitro for inducing 50% of the maximum alkaline phosphatase activity (Transactivation) against human Peroxisome proliferator activated receptor delta using transfection assay in CV-1 cells; IA = Inactive at 10e-4 M

The species named for test [15] is Mus musculus. Kind of test: Compound was tested for Antihyperlipidemic activity, activity is expressed as percent increase of body weight.
Test [16] deals with T4, Peroxisome proliferator-activated receptor gamma (Mus musculus, UniProt P37238).
T4 sequence (P37238 whole entry): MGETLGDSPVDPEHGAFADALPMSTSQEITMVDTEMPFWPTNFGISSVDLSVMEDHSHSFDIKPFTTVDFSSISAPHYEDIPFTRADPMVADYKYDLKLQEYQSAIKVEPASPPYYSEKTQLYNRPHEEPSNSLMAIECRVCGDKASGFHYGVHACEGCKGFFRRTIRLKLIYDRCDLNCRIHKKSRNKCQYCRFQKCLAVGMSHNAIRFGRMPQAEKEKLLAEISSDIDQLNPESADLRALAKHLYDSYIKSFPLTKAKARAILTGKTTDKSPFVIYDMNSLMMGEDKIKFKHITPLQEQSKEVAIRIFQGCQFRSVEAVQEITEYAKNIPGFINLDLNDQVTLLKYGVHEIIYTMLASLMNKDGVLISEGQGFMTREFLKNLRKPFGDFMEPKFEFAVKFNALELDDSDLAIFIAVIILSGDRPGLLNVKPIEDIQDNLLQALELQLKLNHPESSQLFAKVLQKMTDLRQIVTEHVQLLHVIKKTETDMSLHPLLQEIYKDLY
Kind of test: Compound was tested functionally in vitro for inducing 50% of the maximum alkaline phosphatase activity (Transactivation) against murine Peroxisome proliferator activated receptor gamma using transfection assay in CV-1 cells. The class given is functional, cell-based.

In test [17] the target is T5, Peroxisome proliferator-activated receptor alpha (Homo sapiens) (UniProt Q07869).
T5 sequence (whole entry): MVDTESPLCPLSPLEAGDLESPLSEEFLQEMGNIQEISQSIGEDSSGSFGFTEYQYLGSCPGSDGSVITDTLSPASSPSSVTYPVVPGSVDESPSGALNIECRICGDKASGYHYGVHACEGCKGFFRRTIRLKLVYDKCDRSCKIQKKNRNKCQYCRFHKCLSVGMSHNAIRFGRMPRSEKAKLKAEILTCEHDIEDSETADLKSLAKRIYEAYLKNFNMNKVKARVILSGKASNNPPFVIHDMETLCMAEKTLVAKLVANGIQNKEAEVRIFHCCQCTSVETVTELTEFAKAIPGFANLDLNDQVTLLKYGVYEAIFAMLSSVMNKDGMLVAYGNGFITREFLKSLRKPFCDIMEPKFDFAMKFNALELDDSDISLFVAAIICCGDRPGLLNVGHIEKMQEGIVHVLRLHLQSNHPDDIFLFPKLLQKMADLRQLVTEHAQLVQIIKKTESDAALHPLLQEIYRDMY
The conditions noted are these: CV-1; 10e-4 M.

Test [18] addresses T6, Peroxisome proliferator-activated receptor gamma (Homo sapiens, UniProt P37231).
T6 sequence (P37231 whole entry): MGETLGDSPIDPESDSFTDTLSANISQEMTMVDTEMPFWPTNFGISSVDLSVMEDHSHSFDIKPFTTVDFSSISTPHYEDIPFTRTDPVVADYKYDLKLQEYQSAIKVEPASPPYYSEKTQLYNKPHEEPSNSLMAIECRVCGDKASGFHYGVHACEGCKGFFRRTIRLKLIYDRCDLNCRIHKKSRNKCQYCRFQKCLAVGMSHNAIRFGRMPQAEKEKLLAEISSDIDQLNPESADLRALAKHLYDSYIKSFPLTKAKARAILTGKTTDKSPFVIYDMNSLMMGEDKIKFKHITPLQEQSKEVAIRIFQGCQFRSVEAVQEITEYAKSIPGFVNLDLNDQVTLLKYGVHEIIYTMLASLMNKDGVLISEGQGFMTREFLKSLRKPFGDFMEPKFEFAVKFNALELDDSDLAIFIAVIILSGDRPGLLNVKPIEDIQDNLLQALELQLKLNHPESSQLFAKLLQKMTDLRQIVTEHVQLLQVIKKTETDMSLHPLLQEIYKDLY
Description: (§1) Activation of peroxisome proliferator activated receptor gamma measured by induction of 50% of maximum alkaline phosphatase activity, transfection assay in CV-1 cells

For test [19], the target named is T6, Peroxisome proliferator-activated receptor gamma. This is another data set of the same source.
Description: In vitro binding to peroxisome proliferator activated receptor gamma (PPAR gamma) using [3H]-BRL 49653 as radioligand in scintillation proximity assay (SPA)
Test [20] concerns the target T7, Peroxisome proliferator-activated receptor gamma (Homo sapiens) (UniProt P37231).
T7 sequence (whole entry): T6 sequence (P37231 whole entry)
The following applies: 10e-4 M.
Description: Compound was tested for its ability to promote differentiation of C3H10T1/2 stem cells to adipocytes using lipogenesis assay mediated through activation of Peroxisome proliferator activated receptor gamma; IA = Inactive at 10e-4 M

Test [21] deals with T8, Peroxisome proliferator-activated receptor alpha (Homo sapiens, UniProt Q07869).
T8 sequence (Q07869 whole entry): T5 sequence (whole entry)
Kind of test: Compound was tested functionally in vitro for inducing 50% of the maximum alkaline phosphatase activity (Transactivation) against human Peroxisome proliferator activated receptor alpha using transfection assay in CV-1 cells. Format: functional, cell-based.

The target in test [22] is T5, Peroxisome proliferator-activated receptor alpha (Homo sapiens). Kind of test: The compound was tested in vitro for inhibiting the 50% binding of Peroxisome proliferator activated receptor alpha.
Test [23] addresses T6, Peroxisome proliferator-activated receptor gamma. The conditions noted are these: cv-1.
Description: as §1
The target of test [24] is T7, Peroxisome proliferator-activated receptor gamma (Homo sapiens).
Description: Tested for its ability to bind to Peroxisome proliferator activated receptor gamma using [3H]-BRL 49653 as radioligand in scintillation proximity assay (SPA)

For `Cc1c(C)c2c(c(C)c1O)CCC(C)(COc1ccc(CC3SC(=O)NC3=O)cc1)O2` (stereo not given) [TROGLITAZONE], the Reduction in the test listed under Rattus norvegicus [1] was found to be 81%; in the test listed under Rattus norvegicus [2], 87%; with Rattus norvegicus [3], 29%; in the test on Rattus norvegicus [4] it was 61%.
Regarding `Cc1oc(-c2ccccc2)nc1CCOc1ccc(C[C@H](Nc2ccccc2C(=O)c2ccccc2)C(=O)O)cc1` [FARGLITAZAR], the Reduction is reported as 56% in the test filed under Mus musculus [5]; 54% in the test listed under Mus musculus [6]; 65% in the test on Mus musculus [7]; 65% in the test on Rattus norvegicus [10]; 75% in the test filed under Rattus norvegicus [11]; 77% in the test filed under Rattus norvegicus [12]. The compound also came in with a Reduction with Rattus norvegicus [13] of 33%. The “Log EC50” value in test [8], in test [9] and in test [14] was “inactive” each time. For the same compound, the “body weight increase %” value in the test listed under Mus musculus [15] turned out to be 17%.
Consider `CN(CCOc1ccc(C[C@H](Nc2ccccc2C(=O)c2ccccc2)C(=O)O)cc1)c1ccccn1` (stereo in doubt; 18), for which the Reduction in the test listed under Mus musculus [5] is recorded as 46%; in the test listed under Mus musculus [6], 61%; in the test with Mus musculus [7] it was 58%; in the test on Rattus norvegicus [10], 68%; in the test listed under Rattus norvegicus [11] it was 73%; in the test listed under Rattus norvegicus [12] it was 87%. The Reduction with Rattus norvegicus [13] amounted to 37%. Further, the “Log EC50” value in test [8], in [9], in test [14] and in test [17] was “inactive” throughout. The midpoint of the response in test [16], the EC50, lay at 13.2 nM. The “body weight increase %” value in the test filed under Mus musculus [15] came to 6%.
In test [18], `CN(CCOc1ccc(CC(Nc2cccc3c2C(=O)c2ccccc2C3=O)C(=O)O)cc1)c1nc2ccccc2o1` (stereo not given) showed a 50% effective concentration (EC50) of 5.01 nM. The same compound gave an inhibition constant (Ki) in test [19] of 5.13 nM. Moreover, in test [20], the “Log EC50” value is “inactive”.
As to `CN(CCOc1ccc(C[C@H](Nc2ccccc2C(=O)c2ccccc2)C(=O)O)cc1)c1nc2ccccc2o1`, the values for the Reduction in the test filed under Mus musculus [5], in the test listed under Mus musculus [6] and in the test on Mus musculus [7] were 38%, 36% and 41%, respectively. The figures for the concentration for a half-maximal effect (EC50) in test [21], in test [16] and in test [18] were 6460 nM, 4.68 nM and 2.63 nM, respectively. The “Log EC50” value in [8], in [9] and in test [14] was “inactive” throughout. Also, the pKi in test [22] worked out at 5.92. The same compound showed a Ki in test [19] of 1.48 nM. The “Log EC50” value in test [23] is -8.58. For the same compound, the Log Ki in test [24] is 8.83 µM. Also, in the test listed under Mus musculus [15], the “body weight increase %” value stood at 9%.
